Data as given in patent publication US10858308B2, “Compounds and compositions” (priority 2017, dated 2020).
Marks after values point to notes of the source that are not given here.

Tests used:
[1] = tested on: Candida albicans ATCC 10231; assay: MIC by broth dilution assay, Candida albicans; type: cell-based; settings: 4 experiments, inoculum 3-6.5 × 10^3 cfu/ml, range bacteriostatic-bactericide concentration; for Sample's MIC: 37° C. 18-22 hours; for MIC: ATCC10231, 37° C. 18-22 hours, read-out: Sample's MIC
Procedure: (§1) Minimal inhibitory concentration (MIC) of each compound was tested by broth dilution assay.
(§2) • McFarland standard 0.5 • Falcon round-bottom 5 ml tubes • Disposable loops (1 μl and 10 μl) • Graduated pipettes (20 μl-1000 μl) • Disposable Petri dishes Media • Sterile normal saline • TSB (Tryptic Soy Broth) • TSA (Tryptic Soy Agar) Bacterial and Fungal strains • Salmonella enterica serovar Typhimurium ATCC 14028 • Staphylococcus aureus ATCC 6538 • Candida albicans ATCC 10231
(§3) Compounds 2, 3 and 4 were diluted in dimethyl sulfoxide (DMSO) at 10 mg/ml and were future 2-fold diluted for testing in TSB.
(§4) From a pure o/n culture, material from at least 3-4 colonies was chosen and suspended totally in 4 ml saline in tubes. The suspension was mixed.
(§5) The turbidity of inoculum was adjusted to match that of standard by comparing visually with the McFarland 0.5 standard using white paper with black lines as background.
(§6) The McFarland 0.5 suspension were diluted as follows for the species tested at this course:
(§7) The suspensions were used for inoculation within 15 minutes.
(§8) The Falcon round-bottom 5 ml tubes were inoculated with 500 μl of the inoculum suspension with 500 μl two-fold dilutions of antimicrobial agent using a graduated pipette
(§9) Tubes were sealed and incubated at 37° C. for 18-22 hours. This was done to avoid losing growth media and to avoid cross contamination.
(§10) McFarland 0.5 is approximately 10^8 CFU/ml. Standardization of inoculum is essential because the interpretation of the results is based on a certain inoculum.
(§11) Each tube contained approximately 5×10^5-1×10^6 CFU/ml after inoculation of bacteria and […] 5×10^3-1×10^4 CFU/ml of yeast.
(§12) Purity of the inoculum suspension was checked.
(§13) Growth in the 3 positive control tubes was checked.
(§14) Minimal inhibitory concentration (MIC) was recorded as the lowest concentration of antimicrobial agent with no visible growth.

[2] = tested on: Staphylococcus aureus ATCC 6538; assay: MIC by broth dilution assay, Staphylococcus aureus; type: cell-based; settings: ATCC6538, 37° C. 18-22 hours, 4 experiments, inoculum 1.2-2.1 × 10^6 cfu/ml, range bacteriostatic-bactericide concentration, read-out: Sample's MIC
Procedure: as §1, §2, §3, §4, §5, §6
Gr-pos.: 50 μl McFarl. 0.5 into 10 ml broth
as §7
The Falcon round-bottom 5 ml tubes were inoculated with 500 μl of the inoculum suspension with 500 μl two-fold dilutions of antimicrobial agent using a graduated pipette […]
as §14

[3] = tested on: Salmonella enterica serovar Typhimurium ATCC 14028; assay: MIC by broth dilution assay, Salmonella Typhimurium; type: cell-based; settings: for MIC: Salmonella enterica, read-out: Sample's MIC
Procedure: as §1, §2, §3, §4, §5, §6
Gr-neg.: 10 μl McFarl. 0.5 into 10 ml broth
as §7, §8, §9, §10, §11, §12, §13, §14

[4] = tested on: Herpes Simplex virus-1 (HSV 1); assay: HSV 1 spread and plaque assay in Vero cells
Vaccinia virus (WR-VV) = type: cell-based; set-up: dose or concentration left out as unconfirmed; settings: BSC 40 cells pre-treated
pH of aqueous solution = type: physicochemical
Surfactant activity = type: physicochemical
[5] = in the presence of 100 μg/ml of the compounds
[6] = in the presence of the compounds

| Molecule | Sample's MIC [1] | MIC [1] [µg/mL] | MIC [2] [µg/mL] | MIC [3] [µg/mL] | melting point [°C] | HSV-1 infectivity reduced by [4, 5] [%] | HSV-1 infectivity reduced by [4, 6] [%] | inhibition of Vaccinia virus plaque formation (Vaccinia virus (WR-VV)) | Aqueous solution pH (pH of aqueous solution) | Surfactant activity (Surfactant activity) | inhibitory effect on HSV 1 spreading and plaque number ([4]; pre-treated, liquid and agar plaque assay, two days of infection, dose dependent) | Sample's MIC ([3]; Salmonella enterica serovar Typhimurium ATCC 14028, broth dilution, 37° C. 18-22 hours, 4 experiments, inoculum 5 × 10^3 cfu/ml, range bacteriostatic-bactericide concentration) [µg/mL] |
| --- | --- | --- | --- | --- | --- | --- | --- | --- | --- | --- | --- | --- |
| Cc1ccc(C(C)C)c(OC(=O)C[N+](C)(C)CCCCCCCCCC[N+](C)(C)CC(=O)Oc2cc(C(C)C)ccc2C)c1 [Compound 2, N^1-{2-[2-methyl-5-(propan-2-yl)phenoxy]-2-oxoethyl}-N^1,N^1,N^10,N^10-tetramethyl-N^10-{2-[5-methyl-2-(propan-2-yl)phenoxy]-2oxoethyl}decane-1,10-bis(aminium) dichloride] | 62.5-125* μg/ml | 62.5 to 125 | 31.2 to 62.5 | 62.5 to 125 | 92 to 96 | 80 | 50 | – | – | – | – | – |
| Cc1ccc(C(C)C)c(OC(=O)C[N+](C)(C)CCCCCCCCCC[N+](C)(C)CCCCCCCCCC[N+](C)(C)CC(=O)Oc2cc(C(C)C)ccc2C)c1 [Compound 3, N^1-{{2-[2-methyl-5-(propan-2-yl)phenoxy]-(2-oxoethyldimethyl)azaniumyl bromide}decyl}-N^10-{2-[5-methyl-2-(propan-2-yl)phenoxy]-2oxoethyl}-N^1,N^1,N^1,N^10,N^10-tetramethyldecane-1,10-bis(aminium) dichloride] | – | 31.2 to 62.5 | 15.6 to 31.2 | 31.2 to 62.5 | – | 80 | 50 | none of compounds 2 or 3 inhibited Vaccinia virus (VV) plaque formation | 7.2 | Displays Surfactant Activity | strong inhibitory effect | – |
| N^1-{2-[2-methyl-5-(propan-2-yl)phenoxy]-2-oxoethyl}-N^1,N^1,N^10,N^10-tetramethyl-N^10-{2-[5-methyl-2-(propan-2-yl)phenoxy]-2oxoethyl}decane-1,10-bis(aminium) dichloride [Compound 4] | 31.25 to 62.5 µg/mL | – | – | – | – | – | – | – | – | – | – | 31.25 to 62.5 |
